# Results taken from article PMC9104013, “Role of Polyamine-Induced Dimerization of Antizyme in Its Cellular Functions” (International Journal of Molecular Sciences, 2022).
# Assays:
# mouse OAZ1 (mOAZ1) = target: T1, mouse OAZ1 (mOAZ1) (Mus musculus, UniProt P54369); assay: Isothermal titration calorimetry of polyamines binding to mOAZ1; settings: for ΔH (enthalpy variation) / Ka (affinity constant): pH 7.5; for ΔH (enthalpy variation): SD did not exceed ±20%; for Ka (affinity constant): SD did not exceed ±25%; for Binding to mOAZ1: under the conditions used; for Kd: read-out: Kd (dissociation constant); for TΔS (entropy variation): calculated from TΔS = ΔH + RTlnKa
# T1 construct: Full-length mOAZ1 protein was successfully produced in E. coli; made in house; host or cells: Escherichia coli Rosetta (DE3)
# T1 sequence (P54369 whole entry): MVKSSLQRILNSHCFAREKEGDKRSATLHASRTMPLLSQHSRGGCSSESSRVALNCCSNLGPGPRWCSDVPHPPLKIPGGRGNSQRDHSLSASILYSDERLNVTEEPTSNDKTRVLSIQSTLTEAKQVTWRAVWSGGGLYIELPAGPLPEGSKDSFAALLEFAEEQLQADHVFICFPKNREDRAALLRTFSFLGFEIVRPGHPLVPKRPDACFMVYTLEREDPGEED
# Protocol: For the precise isothermal titration calorimetry (ITC) experiments only freshly purified samples turned out to be suitable. The thermodynamic parameters of polyamines binding to OAZ1 were measured using a MicroCal iTC200 instrument (GE Healthcare, Chicago, IL, USA) as described elsewhere. Experiments were carried out at 31 °C in buffer containing 25 mM potassium phosphate, pH 7.5; 150 mM KCl; 25% (v/v) glycerol; 1 mM 2-mercaptoethanol; and 1 mM PMSF. Aliquots (2.5 μL) of ligands were injected into a 0.2 mL cell containing the protein solution to achieve a complete binding isotherm. Protein and ligand concentrations were 20 μM and 200 μM, respectively. The heat of dilution was measured by injection of the ligand into the buffer solution or by additional injections of ligand after saturation; the values obtained were subtracted from the heat of reaction to obtain the effective heat of binding. The resulting titration curves were fitted using the MicroCal Origin software, assuming one set of binding sites. Affinity constants (Ka) and enthalpy variations (ΔH) were determined, and the entropy variations (ΔS) were calculated from the equation: TΔS = ΔH + RTlnKa.
# OAZ1 protein = test system: OAZ1 protein; set-up: method as in PMID 11972449; settings: HTC cells; cited from earlier work
# [1] = target: T2, recombinant mOAZ1 protein (Mus musculus, UniProt P54369); assay: Electrophoresis of mOAZ1-Polyamine complex (0.01% SDS in running buffer); format: binding; settings: 200 μM polyamine, 30 min, 20 °C, pH 7.5
# T2 construct: Full-length mOAZ1 protein was successfully produced in E. coli; made in house; host or cells: Escherichia coli Rosetta (DE3)
# T2 sequence (P54369 whole entry): as above
# Protocol: The recombinant mOAZ1 protein (1 μg/band) was incubated with 200 μM of a polyamine at room temperature for 30 min. Then the sample was quenched with a loading buffer (200 mM Tris-HCl, pH 6.8, 0.01% bromophenol blue, and 40% glycerol) and applied onto 12% polyacrylamide gel lacking SDS. Electrophoresis was carried out in a running buffer with decreased SDS concentration (25 mM Tris base; 250 mM glycine; and 0.01% SDS) at 70 V. The gel was stained with Coomassie R-250.
# [2] = calculated as 1/Ka, no binding = not detected, Kd > 50 μM not detectable
SMILES,"ΔH (enthalpy variation) (mouse OAZ1 (mOAZ1); ITC, 31 °C)","Ka (affinity constant) (mouse OAZ1 (mOAZ1); ITC, 31 °C)",Binding to mOAZ1 (mouse OAZ1 (mOAZ1); ITC),Kd (mouse OAZ1 (mOAZ1); [2]),TΔS (entropy variation) (mouse OAZ1 (mOAZ1)),"Stoichiometry mOAZ1/Polyamine (mouse OAZ1 (mOAZ1); ITC, 31 °C, pH 7.5, 150 mM KCl, 25% glycerol, protein 20 μM, ligand 200 μM)",Kd (dissociation constant) (mouse OAZ1 (mOAZ1); [2]),Half-life of OAZ1 protein (OAZ1 protein),Formation of (mOAZ1)2-Polyamine complex / dimerization [1]
"CCNCCCNCCCNCCCNCC [DENSpm, N^1,N^11-diethylnorspermine]",-5.1 kcal/mol,750000 M⁻¹,bound to mOAZ1,1.3 µM,3.0 kcal/mol,,,,
"NCCCCN [Put, putrescine]",No binding ^f,No binding ^f,did not,,No binding ^f,No binding ^f,No binding ^f,,
CCNCCCCNCCCCNCCCCNCCCCNC/C=C/CNCCCCNCCCCNCCCCNCCCCNCC [SL-11144],,,,,,,,did not increase the half-life of OAZ1 protein,
"NCCCNCCCCNCCCN [Spm, spermine]",-3.7 kcal/mol,920000 M⁻¹,bound to mOAZ1,1.1 µM,4.5 kcal/mol,,,did not increase the half-life of OAZ1 protein,induce dimerization of OAZ1
